Patent US20060281791A1, “Methods of increasing proliferation of adult mammalian cardiomyocytes through p38 map kinase inhibition” (CHILDREN'S MEDICAL CENTER CORPORATION, priority 2005, published 2006)

Assays:
Type in all cases: in vivo, rat
[1] = system: myocardial infarction in adult rats; assay: Thinning index (ventricular wall thinning) after myocardial infarction
Description: To determine whether p38 inhibition/FGF1 stimulation can induce cardiomyocyte proliferation in vivo and whether it has a positive effect on cardiac function after cardiac injury we created myocardial infarctions (MI) in adult rats (250 g) by coronary artery ligation. The p38 inhibitor SB203580 HCl or its vehicle, saline, were injected intraperitoneal every three days for the first month of the study. FGF1 or its carrier BSA was injected mixed with self-assembling peptides once into the infarct border zone immediately after coronary artery ligation. […] Animals were analyzed 24 hours, 2 weeks, and 3 month after surgery. […]
Ventricular wall thinning is an important parameter of heart function. Thus, we determined the thickness of the ventricular wall after injury. For this purpose we calculated the thinning index (ratio of minimal ventricular wall thickness to maximal thickness of the septum). […]
(§1) Scar formation was determined as fibrotic area/(fibrotic+non-fibrotic area) based on all sections. The thinning index is a ratio of the amount of wall thinning in the infarct normalized to the thickness of the septum and is calculated by dividing the minimal infarct wall thickness with maximal septal wall thickness (2 weeks: section 1 to 4, 3 month: section 1 to 6 from base).

[2] = system: myocardial infarction in adult rats; assay: Fractional shortening (echocardiography) after myocardial infarction
Description: The p38 inhibitors were tested for in vivo effect following myocardial infarct. For the evaluation of left ventricular function, transthoracic echocardiogram can be performed on the rats after myocardial infarction 1 day or 14 days right. Rats can be anesthetized with 4-5% isoflurane in an induction chamber. The chest can be shaved, and the rats can be placed in dorsal decubitus position and intubated for continuous ventilation. 1-2% isoflurane can be continuously supplied via a mask. 3 electrodes can be adhered to their paws to record the electrocardiographic tracing simultaneously with the cardiac image identifying the phase of a cardiac cycle.
Echocardiograms can be performed with a commercially available echocardiography system equipped with 7.5 MHz phased-array transducer (Philips-Hewlett-Packard). The transducer can be positioned on the left anterior side of the chest. Longitudinal images of the heart can be obtained, including the left ventricle, atrium, the mitral valve and the aorta, followed by the cross-sectional images from the plane of the base to the left ventricular apical region. M-mode tracings can be obtained at the level below the tip of the mitral valve leaflets at the level of the papillary muscles. Fractional shorting (FS) can be calculated as a measure of systolic function, according to the M-mode tracing from the cross-sectional view: maximal LV end-diastolic diameter (at the time of maximal cavity dimension), minimal LV end-systolic diameter (at the time of maximum anterior motion of the posterior wall), FS (%)={(LVEDD−LVESD)/LVEDD}×100.
(§2) To determine whether p38 inhibition/FGF1 stimulation can induce cardiomyocyte proliferation in vivo and whether it has a positive effect on cardiac function after cardiac injury we created myocardial infarctions (MI) in adult rats (250 g) by coronary artery ligation. The p38 inhibitor SB203580 HCl or its vehicle, saline, were injected intraperitoneal every three days for the first month of the study. FGF1 or its carrier BSA was injected mixed with self-assembling peptides once into the infarct border zone immediately after coronary artery ligation. We injecting a total of 80 μl of 400 ng/ml FGF1, given at 3 different injection sites, into 400 mg of infarcted myocardium estimated to deliver a FGF 1 concentration to the cardiomyocytes of approximately 50 to 100 ng/ml. Animals were analyzed 24 hours, 2 weeks, and 3 month after surgery. We performed two blinded and randomized studies using 62 rats for the 2 week and 61 rats for the 3 month experiment, with at least 10 animals in each experimental group. Animals were treated with saline plus BSA (control), SB203580 HCl plus BSA (p38i), saline plus FGF1 (FGF1), or SB203580 HCl plus FGF1 (p38i/FGF1).
Animal experiments were performed in accordance with guidelines of Children's Hospital in Boston and were approved by the Harvard Medical School Standing Committee on Animals. Myocardial infarction (MI) was produced in ˜250 gm male Sprague-Dawley rats (Charles River and Harlan) as described previously (Hsieh et al., 2006). Briefly, rats were anesthetized by pentobarbital and, following tracheal intubation, the hearts were exposed via left thoracotomy. The left coronary artery was identified after pericardiotomy and was ligated by suturing with 6-0 prolene at the location ˜3mm below the left atrial appendix. For the sham operation, suturing was performed without ligation. […]

[3] = system: myocardial infarction in adult rats; assay: Scar volume (trichrome stain) after myocardial infarction
Description: as §2, with “We performed two blinded and randomized studies using 62 rats for the 2 week and 61 rats for the 3 month experiment, with at least 10 animals in each experimental group. Animals were treated with saline plus BSA (control), SB203580 HCl plus BSA (p38i), saline plus FGF1 (FGF1), or SB203580 HCl plus FGF1 (p38i/FGF1).” left out
To determine if p38 inhibition and FGF1 stimulation have an effect on infarct size we determined scar volume using trichrome stain. […]
as §1

Substance: FGF1: growth factor FGF1 (R&D Systems)
- left ventricular wall thinning (thinning index) ([1]; 2 weeks): significantly reduced
- ventricular wall thinning ([1]; 3 month): significantly improved
- improvement of fractional shortening ([2]; 3 month after infarction): maintained
- left ventricular fractional shortening ([2]; 24 hours after MI): significantly improved
- improvement of fractional shortening ([2]; day 14 after infarction): maintained
- scar size (scar volume) ([3]; 2 weeks): significantly reduced
- scar size (scar volume) ([3]; 3 month): significantly reduced
